# Test results published in patent publication US12076341B2, “Use of apoptotic compensatory proliferation signaling vesicles in tissue repair and wound healing” (Rush University Medical Center, priority 2018, dated 2024).
# Entries after “also recorded” stand apart in the source; their conditions may differ. Where a SMILES comes first, the peptide text is derived from it. The star is where a group is joined. Cbz = O=C(OCc1ccccc1)*; CH2F = FC*
# Key:
# Assay type in all cases: cell-based
# [1] = system: Hela cells; assay: IF time-lapse videomicroscopy of transfected Hela cells (apoptosis, vesicle formation, compensatory proliferation signaling); conditions: cells pre-treated with Z-VAD prior to transfection
# [2] = system: Hela cells; assay: Proliferation assay by cell counts, adherent Hela cells treated with 16K fraction vesicles; conditions: 16K fraction of Z-VAD treated serum-starved Hela cells; cell count 24 h
# Method: Generation and Purification of ACPSVs: 7.5×10^6 cells were cultured in 150 mm^2 flasks (TPP) overnight in 25 mL of indicated media. Next day, cells were induced to undergo intrinsic apoptosis by serum-starvation, extrinsic apoptosis apoptosis by treatment with anti-Fas mAb (abcam-ab11881), or anoikis apoptosis by growing the cells detached from the surface in suspension media in Thermo Scientific Nunclon Sphera plates, in the presence or absence of Z-VAD. 24 to 48 h after induction of apoptosis, culture supernatants from serum-fed healthy (Mock) and apoptotic cells were collected and subjected to differential centrifugation. […] The proliferation-inducing effect associated with each fraction was determined by cell counts after growing recipient cells for 24 h at 37° C. in the presence of 5% CO2, using a hemocytometer after trypsin digestion.
# Proliferation Assay. […] The next day at the time of treatment with vesicles, the initial cell number per well (0 h) was determined by trypsin digestion and cell counts using a hemocytometer. […] Proliferation rates were determined blindly by cell counts determination using a hemocytometer.
# [3] = system: Hela cells; assay: Apoptotic cell death of serum-starved Hela cells by flow cytometry; conditions: Z-VAD pretreatment; 24 h serum starvation
# Method: (§1) (FIG. 2A) Hela cells either received 10% serum (Mock) or were induced to undergo apoptosis by serum-starvation in the presence or absence of Z-VAD. 24 h after serum starvation, apoptotic cell death was assessed by flow cytometry and the tabulated results from 3 independent experiments are shown in (FIG. 2B). (*** p<0.001, One-way ANOVA). (FIGS. 2C-21) Supernatants from the indicated cultures were fractionated by differential centrifugation and evaluated for their Crkl-containing microvesicles (ACPSVs) and CPS. (FIG. 2C) ACPSVs in the 16K fraction of apoptotic cells were visualized by DIC. (FIG. 2D) Vesicle size distribution was determined and plotted (Mean size±S.D.=1.76±1.04 μm, n=822). […] (FIG. 2H) The lipid contents of the vesicles in the 16K fractions of the indicated cultures were measured and the tabulated data from 3 experiments are shown. […] (FIG. 2I) Hela cells were treated with 16K fractions of serum-fed healthy (Mock), serum-starved apoptotic (Apop.), or Z-VAD treated serum-starved (Apop.+Z-VAD) and the proliferation levels were determined by cell count 24 h after treatment. […] 24 h after serum starvation, cells were fixed and analyzed by SEM. […] Five hours after vesicle addition, the fractions of mitotic cells, with no vesicle (NV); with ACPSV only (+AC); with apoptotic body only (+AB); or with a combination of vesicles (+Mix) were assessed by SEM. […]
# [4] = system: Hela cells; assay: Vesicle production in 16K fraction of serum-starved Hela cells (Crkl Western blot, lipid content); conditions: Z-VAD pretreatment; Crkl level and lipid content of 16K fraction
# Method: as §1
# [5] = system: human epithelial keratinocytes (HEK); assay: Anoikis apoptosis, vesicle formation and CPS of HEK cells grown in suspension media; conditions: 60 μm Z-VAD
# Method: HEK primary cells also product Crkl-containing vesicles which mediate CPS in other cells. (FIG. 8A) HEK cells were cultured either seeded (Mock) or induced to undergo anoikis apoptosis by culturing them in suspension media in the presence or absence of Z-VAD. (FIGS. 8A-8B) Supernatants from the indicated cultures were fractionated, as in FIG. 2, and their 16K fractions were evaluated for ACPSV production by Western blotting, using Crkl as a marker for vesicles, whose expression from 3 experiments was evaluated by densitometer and plotted below (FIG. 8A) or by lipid content measurements from 3 experiments in FIG. 8B. (n=3, * p≤ 0.05, ** p≤ 0.01, *** p≤ 0.001, one-way ANOVA). (FIG. 8C) ACPSVs in 16K fraction of apoptotic HEK cells were visualized by DIC. Similar to HeLa and B16 cells, vesicles from apoptotic HEK cells were globular and ranged between 1-1.8 micron in diameter. (FIG. 8D) HEK cells were treated with vesicles (16K fractions) harvested from HEK seeded healthy (Mock) cultures, or HEK grown in suspension media (Apop.), or HEK grown in suspension media in the presence of Z-VAD (Apop.+Z-VAD). 24 h after treatment, the proliferation levels were determined by cell counts and the tabulated data from 3 independent experiments were shown as the Mean±S.D. (** p<0.01, *** p≤ 0.001, one-way ANOVA). […]
smiles,measurement,setting,value
CC(NC(=O)C(NC(=O)OCc1ccccc1)C(C)C)C(=O)NC(CC(=O)O)C(=O)CF (stereo not drawn) [Z-VAD] (Cbz-Val-Ala-Asp-CH2F; configuration not given here),ACPSV formation and release from Crkl-GFP transfected Hela cells,[1],inhibits apoptosis and vesicle formation; also recorded: not formed or released
same,CPS in recipient cells,[2],abrogated
same,apoptosis in serum-starved Hela cells,[3],significantly reduced
same,vesicle production in serum-starved cells,[4],significantly reduced
same,apoptosis in HEK cells grown in suspension media,[5],significantly reduced
same,vesicle formation and CPS in HEK cells grown in suspension media,[5],prevented
